# Source: patent US20120202756A1, “USE OF PRODRUGS TO AVOID GI MEDIATED ADVERSE EVENTS” (priority 2009, published 2012)
# Several values for one entry are separate records, joined by “and”; a condition that tells them apart may be missing. Identical values can stand only once. Like-named read-outs stand apart in the source and are kept apart here.
# How the values were obtained:
# Veillonella parvula = assay: MIC agar dilution; type: cell-based; conditions: NCTC11810
# Veillonella atypical = assay: MIC agar dilution; type: cell-based; conditions: NCTC11830
# Campylobacter coli = assay: MIC agar dilution
# [1] = system: Porphyromonas endodontalis; assay: MIC agar dilution; type: cell-based; conditions: clinical isolate
# [2] = Bioavailability of metronidazole from its prodrugs in the rat; conditions: for Tmax: male, Sprague Dawley, rat, in vivo, po; for T>50% Cmax: period plasma metronidazole at or above 50% of Cmax, oral 1 mg equivalents/kg
# Method: In order to confirm successful absorption and subsequent hydrolysis of these metronidazole prodrugs, a comparative bioavailability study was undertaken in the rat Methods—Three groups of five male Sprague Dawley rats were orally dosed with either metronidazole itself or its succinyl valine or glutaryl para-amino benzoic acid ester prodrugs. Serial tail vein blood samples were subsequently collected via an indwelling cannuala into EDTA tubes containing a stabilising cocktail (including 6 mg/mL NaF) to prevent post collection enzymic hydrolysis of the prodrug. Separated plasma samples were subjected to bioanalysis for both the prodrugs and metronidazole itself using a qualified LC/MS-MS bioanalytical method.
# [3] = system: Peptostreptococcus anaerobius; assay: MIC agar dilution; type: cell-based; conditions: NCTC11460
# Clostridium sordellii = assay: MIC agar dilution; type: cell-based; conditions: Paraclostridium sordellii, NCTC13356; NCTC 13356
# Bacteroides fragilis = assay: MIC agar dilution
# Clostridium perfringens = assay: microbe, parasite or virus in culture; type: cell-based
# Propionibacterium acnes = assay: MIC agar dilution
# Eggerthella lenta = assay: MIC agar dilution; type: cell-based; conditions: ATCC43055, ATCC 43055
# Clostridium difficile = assay: MIC agar dilution; type: cell-based; conditions: Clostridioides difficile
# Prevotella bivia = assay: MIC agar dilution; type: cell-based; conditions: ATCC29303, ATCC 29303
# [4] = system: Porphyromonas assacharolyticus; assay: MIC agar dilution; type: cell-based; conditions: clinical isolate
# Clostridium sporogenes = assay: MIC agar dilution; type: cell-based; conditions: ATCC3584, ATCC 3584
# Clostridium novyi = assay: MIC agar dilution; type: cell-based; conditions: ATCC19402
# [5] = system: Bifidobacterium adolescentis; assay: MIC agar dilution; type: cell-based; conditions: NCTC11814
# [6] = system: Bacteroides thetaiotamicron; assay: MIC agar dilution; type: cell-based
# Bifidobacterium dentium = assay: MIC agar dilution; type: cell-based; conditions: NCTC11816
# [7] = system: Peptostreptococcus magnus; assay: MIC agar dilution; type: cell-based; conditions: Finegoldia magna; clinical isolate
# Clostridium bifermentans = assay: MIC agar dilution; type: cell-based; conditions: Paraclostridium bifermentans, ATCC638
# Bifidobacterium longum = assay: MIC agar dilution; type: cell-based; conditions: NCTC11818
# Campylobacter jejuni = assay: MIC agar dilution
# [8] = system: Peptostreptococcus micros; assay: MIC agar dilution; type: cell-based; conditions: Parvimonas micra; clinical isolate
# Veillonella spp. = assay: MIC agar dilution; type: cell-based; conditions: clinical isolate
# [9] = system: Fusobacterium necrophorum; assay: MIC agar dilution; type: cell-based; conditions: clinical isolate
# Helicobacter pylori = assay: MIC agar dilution
# Prevotella denticola = assay: MIC agar dilution; type: cell-based; conditions: clinical isolate
# [10] = clinical isolate MIC clindamycin 0.5 mg/L
# [11] = NCTC13366, NCTC 13366 - NAP1/027
# [12] = antibiotic-susceptible clinical isolate
# [13] = clinical isolate (first listed, r83)
# [14] = clinical isolate (second listed, r85)
SMILES,MIC (Veillonella parvula) [µg/mL],MIC (Veillonella atypical) [µg/mL],MIC (Campylobacter coli) [µg/mL],MIC (Campylobacter coli; ATCC33559) [µg/mL],MIC [1] [µg/mL],MIC [3] [µg/mL],MIC (Clostridium sordellii) [µg/mL],MIC (Bacteroides fragilis) [µg/mL],MIC (Bacteroides fragilis; ATCC25285) [µg/mL],MIC (Clostridium perfringens) [µg/mL],MIC (Clostridium perfringens; ATCC13124) [µg/mL],MIC (Propionibacterium acnes; Cutibacterium acnes) [µg/mL],MIC (Propionibacterium acnes; [10]) [µg/mL],MIC (Eggerthella lenta) [µg/mL],"MIC (Clostridium difficile; ATCC700057, ATCC 700057) [µg/mL]",MIC (Clostridium difficile; [11]) [µg/mL],MIC (Clostridium difficile; [12]) [µg/mL],MIC (Prevotella bivia) [µg/mL],MIC [4] [µg/mL],MIC (Clostridium sporogenes) [µg/mL],also measured
"Cc1ncc([N+](=O)[O-])n1CCOC(=O)CCCC(=O)Nc1ccc(C(=O)O)cc1 [Metronidazole glutaryl PABA ester, Metronidazole-(glutaryl-PABA) ester]",> 64,> 64,> 64,64,4,16,64,> 64,> 64,> 64,> 64,> 64,>64,32,8,16,8,32,8,8,Tmax [2]: 2.0 h; MIC (Clostridium novyi): 32 µg/mL; MIC [5]: > 64 µg/mL; MIC ([6]; ATCC29741): > 64 µg/mL; MIC ([6]; NCTC10582): > 64 µg/mL; MIC (Bifidobacterium dentium): > 64 µg/mL; MIC [7]: 16 µg/mL; MIC (Clostridium bifermentans): 64 µg/mL; MIC (Bifidobacterium longum): > 64 µg/mL; MIC (Campylobacter jejuni): > 64 µg/mL; MIC (Campylobacter jejuni; ATCC33560): 64 µg/mL; MIC [8]: 8 µg/mL; MIC (Veillonella spp.): > 64 µg/mL; MIC [9]: 8 µg/mL; MIC (Helicobacter pylori; [13]): 32 µg/mL; MIC (Helicobacter pylori; [14]): 16 µg/mL; MIC (Prevotella denticola): 64 µg/mL
"Cc1ncc([N+](=O)[O-])n1CCOC(=O)CCC(=O)N[C@H](C(=O)O)C(C)C [Metronidazole succinyl valine ester, Metronidazole-[succinyl-(S)-valine]ester]",> 64,> 64,> 64,> 64,> 64,32,> 64,> 64,> 64,> 64,> 64,> 64,>64,> 64,32,64,32,> 64,> 64,32,Tmax [2]: 2.0 h; MIC (Clostridium novyi): > 64 µg/mL; MIC [5]: > 64 µg/mL; MIC ([6]; ATCC29741): > 64 µg/mL; MIC ([6]; NCTC10582): > 64 µg/mL; MIC (Bifidobacterium dentium): > 64 µg/mL; MIC [7]: 64 µg/mL; MIC (Clostridium bifermentans): > 64 µg/mL; MIC (Bifidobacterium longum): > 64 µg/mL; MIC (Campylobacter jejuni): > 64 µg/mL; MIC (Campylobacter jejuni; ATCC33560): > 64 µg/mL; MIC [8]: 64 µg/mL; MIC (Veillonella spp.): > 64 µg/mL; MIC [9]: 32 µg/mL; MIC (Helicobacter pylori; [13]): 64 µg/mL; MIC (Helicobacter pylori; [14]): 64 µg/mL; MIC (Prevotella denticola): > 64 µg/mL
"Cc1ncc([N+](=O)[O-])n1CCO [Metronidazole, metronidazole, reference compound]",4,8,1,0.5,1,0.12,0.5,0.5,0.5,2,1,> 64,>64,0.5,0.12,0.12,0.06,1,0.5,0.06,"time of peak plasma levels after dosing ([2]; oral, male rats): ≤ 15 min; T>50% Cmax ([2]; male rats, individual animals): 1.5 h and 1.75 h and 2.75 h and 3.0 h and 2.5 h; T>50% Cmax ([2]; male rats, mean): 2.3 ± 0.65 h and 2.3 h; MIC (Clostridium novyi): 0.5 µg/mL; MIC [5]: 32 µg/mL; MIC ([6]; ATCC29741): 1 µg/mL; MIC ([6]; NCTC10582): 1 µg/mL; MIC (Bifidobacterium dentium): 16 µg/mL; MIC [7]: 0.25 µg/mL; MIC (Clostridium bifermentans): 0.25 µg/mL; MIC (Bifidobacterium longum): 8 µg/mL; MIC (Campylobacter jejuni): 8 µg/mL; MIC (Campylobacter jejuni; ATCC33560): 1 µg/mL; MIC [8]: 0.25 µg/mL; MIC (Veillonella spp.): 2 µg/mL; MIC [9]: 0.12 µg/mL; MIC (Helicobacter pylori; [13]): 2 µg/mL; MIC (Helicobacter pylori; [14]): 2 µg/mL; MIC (Prevotella denticola): 0.5 µg/mL"
